The term ILS denotes how much longer treated animals lived than controls. Higher therefore signals much gain in survival. Usually IC50 stands for the midpoint of a concentration-inhibition curve. A high value points to weaker potency.

In brackets after ≈: the same amount, converted by molar mass.

Assay [1] deals with Mus musculus. The experiment in a line: In vivo antitumor activity against P388 murine leukemia as percentage increase in life span as compared with the untreated at a dose of 0.063 mg/kg administered intraperitoneally. Type of assay: functional. To be noted: P388, ip, route intraperitoneal.
The test system of a further assay is P388. The experiment in a line: Tested in vitro for cytotoxicity as concentration required to inhibit 50 percent growth of P388 murine leukemia cells. It counts as functional, cell-based. The conditions noted are these: Mus musculus.
Assay [2] concerns Mus musculus. The experiment in a line: In vivo antitumor activity against P388 murine leukemia as percentage increase in life span as compared with the untreated at a dose of 1 mg/kg administered intraperitoneally. It counts as functional. The conditions noted are these: P388, ip, route intraperitoneal.
For assay [3], the system named is Mus musculus. The experiment in a line: In vivo antitumor activity against P388 murine leukemia as percentage increase in life span as compared with the untreated at a dose of 0.125 mg/kg administered intraperitoneally. It counts as functional. The conditions noted are these: P388, ip, route intraperitoneal.
Assay [4] has as its system Mus musculus. The experiment in a line: In vivo antitumor activity against P388 murine leukemia as percentage increase in life span as compared with the untreated at a dose of 0.5 mg/kg administered intraperitoneally. The conditions noted are these: P388, ip, route intraperitoneal. It counts as functional.
Assay [5] has as its system Mus musculus. The experiment in a line: In vivo antitumor activity against P388 murine leukemia as percentage increase in life span as compared with the untreated at a dose of 0.625 mg/kg administered intraperitoneally. It counts as functional. To be noted: P388, ip, route intraperitoneal.
In assay [6] the test system is Mus musculus. The experiment in a line: In vivo antitumor activity against P388 murine leukemia as percentage increase in life span as compared with the untreated at a dose of 0.25 mg/kg administered intraperitoneally. The conditions noted are these: P388, ip, route intraperitoneal. Type of assay: functional.

With `COC(=O)c1[nH]c2c(c1C(=O)OC)C13CC1CN(C(=O)c1cc4cc(OC)c(OC)c(OC)c4[nH]1)C3=CC2=O` (stereo not drawn), the ILS at 0.063 mg/kg in the assay with Mus musculus [1] stood at 43%. This molecule also displayed an IC50 with P388 of 0.74 ng/mL (≈ 1.38 nM).
In the assay on P388, `COC(=O)c1[nH]c2c(O)cc3c(c2c1C(=O)OC)C(CCl)CN3C(=O)c1cc2cc(OC)ccc2[nH]1` (stereo not drawn) had an IC50 of 0.27 ng/mL (≈ 0.527 nM). The same molecule gave an increase in lifespan (ILS) at 1 mg/kg in the assay with Mus musculus [2] of 43%.
`COC(=O)c1[nH]c2c(c1C(=O)OC)C13CC1CN(C(=O)c1cc4cc(OC)ccc4[nH]1)C3=CC2=O` (stereo not drawn): in the assay on P388, it took 0.63 ng/mL (≈ 1.33 nM) to reach half-maximal inhibition (IC50). This molecule also came in with an increase in life span (ILS) at 0.125 mg/kg with Mus musculus [3] of 49%.
In the assay on Mus musculus [3], `COC(=O)c1[nH]c2c(c1C(=O)OC)C13CC1CN(C(=O)c1cc4cc(NC(=O)c5cc6ccccc6o5)ccc4[nH]1)C3=CC2=O` (stereo not drawn) showed an ILS at 0.125 mg/kg of 79%.
`COC(=O)c1[nH]c2c(O)cc3c(c2c1C(=O)OC)C(CCl)CN3C(=O)c1cc2cc(NC(=O)c3cc4ccccc4[nH]3)ccc2[nH]1` (stereo not drawn) showed a half-maximal inhibitory concentration (IC50) in the assay on P388 of 0.24 ng/mL (≈ 0.375 nM). The same molecule had an ILS at 0.5 mg/kg with Mus musculus [4] of 90%.
In the assay on Mus musculus [5], `COC(=O)c1[nH]c2c(O)cc3c(c2c1C(=O)OC)C(CCl)CN3C(=O)c1cc2cc(NC(=O)c3cc4ccccc4o3)ccc2[nH]1` (stereo not drawn) registered an ILS at 0.625 mg/kg of 115%. The molecule also gave an IC50 with P388 of 0.32 ng/mL (≈ 0.499 nM).
The molecule `COC(=O)c1[nH]c2c(O)cc3c(c2c1C(=O)OC)C(CCl)CN3C(=O)c1cc2cc(OC)c(OC)c(OC)c2[nH]1` (stereo not drawn) registered an IC50 in the assay on P388 of 0.31 ng/mL (≈ 0.542 nM). In the assay with Mus musculus [2], this molecule came in with an ILS at 1 mg/kg of 73%.
Take `COC(=O)c1c(C)[nH]c2c(O)cc3c(c12)[C@H](CCl)CN3C(=O)c1cc2cc(OC)c(OC)c(OC)c2[nH]1`: half-maximal inhibition with P388 (IC50) required 0.22 ng/mL (≈ 0.417 nM). The ILS at 0.25 mg/kg in the assay with Mus musculus [6] amounted to 74%.
The molecule `COC(=O)c1[nH]c2c(c1C(=O)OC)C13CC1CN(C(=O)c1cc4cc(NC(=O)c5cc6ccccc6[nH]5)ccc4[nH]1)C3=CC2=O` (stereo not drawn) yielded an ILS at 0.125 mg/kg in the assay with Mus musculus [3] of 102%.
In the assay on P388, `COC(=O)c1c(C)[nH]c2c1[C@@]13CC1CN(C(=O)c1cc4cc(OC)c(OC)c(OC)c4[nH]1)C3=CC2=O` (mixture of isomers) displayed a 50% inhibitory concentration (IC50) of 0.34 ng/mL. Besides, the ILS at 0.125 mg/kg in the assay with Mus musculus [3] worked out at 80%.
